Read-outs that look alike come from different tables or passages of the source.
What was measured:
[1] = tested on: PC3; test: Long term proliferation assay (15 days); assay type: cell-based; details: Homo sapiens, PC-3, 360 h, read-out: EZM2302 IC50 (absolute, long term proliferation); PC3, PROSTATE, day 15
Protocol: (§1) Long term (14–15 day) cell proliferation assays were performed using the method previously described with adjustments to initial seeding densities depending on growth characteristics for each cell line[54],[55]. For 6 day proliferation studies, see Supplementary Methods.
(§2) Supplementary Table S2. Long term proliferation IC50 values of cell lines dosed with EZM2302. A panel of cell lines was treated with EZM2302fo r 15 da ys in a long term proliferation assa y. Abs olute IC 50 values were calculated in GraphPad Pri sm (non -linear regression anal ysis, top of the curves were fixed to 100%) for each line at d ay 15 .

[2] = tested on: LNCAP; test: Long term proliferation assay (15 days); assay type: cell-based; details: Homo sapiens, 360 h, read-out: EZM2302 IC50 (absolute, long term proliferation), PROSTATE, day 15
Protocol: as §1, §2

[3] = tested on: HT29; test: Long term proliferation assay (15 days); assay type: cell-based; details: Homo sapiens, HT-29, 360 h, read-out: EZM2302 IC50 (absolute, long term proliferation); HT29, LARGE, day 15
Protocol: as §1, §2

[4] = tested on: BT474; test: Long term proliferation assay (15 days); assay type: cell-based; details: Homo sapiens, BT-474, 360 h, read-out: EZM2302 IC50 (absolute, long term proliferation); BT474, BREAST, day 15
Protocol: as §1, §2

[5] = tested on: MCF7; test: Long term proliferation assay (15 days); assay type: cell-based; details: Homo sapiens, 360 h, read-out: EZM2302 IC50 (absolute, long term proliferation); MCF7, BREAST, day 15
Protocol: as §1, §2

[6] = tested on: BT20; test: Long term proliferation assay (15 days); assay type: cell-based; details: Homo sapiens, BT-20, 360 h, read-out: EZM2302 IC50 (absolute, long term proliferation); BT20, BREAST, day 15
Protocol: as §1, §2

[7] = tested on: HCT116; test: Long term proliferation assay (15 days); assay type: cell-based; details: Homo sapiens, HCT-116, 360 h, read-out: EZM2302 IC50 (absolute, long term proliferation); HCT116, LARGE, day 15
Protocol: as §1, §2

[8] = tested on: VCAP; test: Long term proliferation assay (15 days); assay type: cell-based; details: Homo sapiens, 360 h, read-out: EZM2302 IC50 (absolute, long term proliferation), PROSTATE, day 15
Protocol: as §1, §2

[9] = tested on: PABP1 and SmB methylation in NCI-H929 cells; test: Western blot of cellular methyl marks, NCI-H929; details: Homo sapiens, NCI-H929, 96 h
Protocol: Methylation changes were measured at the well-characterized CARM1 substrates PABP1 and SmB[1],[10]. Changes in overall levels of asymmetric dimethyl arginine (aDMA) were assessed with an antibody that detects a generic aDMA motif. Levels of methylated analytes were quantified by densitometry and ratios of methylated to total protein were calculated to determine the cell biochemical IC50 values.
Cultured cells in linear/log phase growth were split to a seeding density of 2e5 cells/mL in 2–20mLs of media, depending on the yield required at the end of the growth period. Compound was diluted in DMSO and added to each culture vessel with a final DMSO concentration of 0.2%. Cells were allowed to grow for 96 hours. At the conclusion of each treatment period, cells were harvested by centrifugation (5 minutes, 1200 rpm), and cell pellets were rinsed once with PBS before being frozen on dry ice pending further processing.
Quantification of Western blots was performed using infra-red emitting secondary antibodies and detection with an ODYSSEY infrared imaging system.

[10] = tested on: 40 protein kinases, lipid kinases and kinase mutants; test: KinaseProfiler screen (Millipore); assay type: biochemical; details: 10 μM
[11] = Hepatocyte stability; assay type: in vitro ADME; details: 1 µM
Protocol: Hepatocyte stability, plasma protein binding and cytochrome P450 assays were performed using standard procedures. Details can be found in Supplementary Methods. […]
where K I and K J are th e inhibition constants for I and J , respectivel y, and alpha is a constant describing the effect of one inhibitor on the binding of another inhibitor 8.
Reversibility experiments were performed in assay buffer lacking bovine skin gelatin. CARM1 […]
mixture was purified using pre-equilibrated 0.5 mL Zeba (7MWCO) spin columns (Thermo Fisher) following manufacturer ’s instructions. CARM1 was diluted to 0.5 nM in an assay reaction mixture using previously described conditions and activity was measured over 2 hours.
Proteins were kept at 4 °C for further activit y testing. Similar results were also obtained when […]
Methyltransf erase cros s screening panel […]
gen eral p rocedu res f rom Knutson et al.9
In cell w estern assay f or detection of asymmetric di -methyl PABP1 an d DNA content RKO cells (ATCC) were maintained in growth medium (DMEM/Glutamax medium supplemented with 10% v/v heat inactivated fetal bovine serum and 100 units/mL penicillin-streptom ycin) and cultured at 37 °C under 5% CO2. Cells were seeded in assay medium at a concentration of 30,000 cells per m L to a pol y -D-l ys ine coated 384 well culture plate with 50 µ L per well. […]

## CNC[C@@H](O)COc1ccc(Cl)c(-c2nc(-c3c(C)noc3C)c(C)c(N3CC4(CCN(C(=O)OC)CC4)C3)n2)c1 [EZM2302]
[1]
  IC50: > 20 µM
[2]
  IC50: 12.2 µM
[3]
  IC50: > 20 µM
[4]
  IC50: > 20 µM
[5]
  IC50: > 20 µM
[6]
  IC50: > 20 µM
[7]
  IC50: > 20 µM
[8]
  IC50: > 20 µM
[9]; read-out: IC50, PABP1me2a
  IC50: 0.009 µM
[9]; read-out: IC50, SmBme0
  IC50: 0.031 µM
[10]
  inhibition of kinases: ≤ 30%
[11]
  CL in human hepatocytes (scaled): < 3 mL/min/kg
